Legend:
[1] = molecular target: T1, Peroxisome proliferator-activated receptor gamma (Homo sapiens, UniProt P37231); assay: Antagonist activity at CMV-fused PPARgamma-LBD-GAL4-DBD (unknown origin) expressed in HEK293T cells assessed as inhibition of rosiglitazone-induced receptor transactivation after 16 hrs by bright-Glo luciferase reporter gene assay; type: cell-based
T1 sequence (P37231 whole entry): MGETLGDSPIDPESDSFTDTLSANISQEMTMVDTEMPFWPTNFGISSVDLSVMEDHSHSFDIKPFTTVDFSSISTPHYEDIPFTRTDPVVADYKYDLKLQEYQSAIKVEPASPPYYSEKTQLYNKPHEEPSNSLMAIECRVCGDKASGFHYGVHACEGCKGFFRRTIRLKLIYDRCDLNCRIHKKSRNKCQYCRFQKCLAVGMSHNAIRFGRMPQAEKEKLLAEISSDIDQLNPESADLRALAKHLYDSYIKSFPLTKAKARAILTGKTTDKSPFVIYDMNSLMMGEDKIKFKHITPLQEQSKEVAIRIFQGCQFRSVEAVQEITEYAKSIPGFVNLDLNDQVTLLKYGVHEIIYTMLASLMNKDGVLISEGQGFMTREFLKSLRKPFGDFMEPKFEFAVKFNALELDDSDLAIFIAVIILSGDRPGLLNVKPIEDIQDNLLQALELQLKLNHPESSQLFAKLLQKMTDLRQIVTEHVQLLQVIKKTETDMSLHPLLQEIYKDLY

[2] = molecular target: T2, Thyroid hormone receptor beta (Homo sapiens, UniProt P10828); assay: Antagonist activity at CMV-fused TRbeta-LBD-GAL4-DBD (unknown origin) expressed in HEK293T cells assessed as inhibition of T3-induced receptor transactivation after 16 hrs by bright-Glo luciferase reporter gene assay; type: cell-based
T2 sequence (P10828 whole entry): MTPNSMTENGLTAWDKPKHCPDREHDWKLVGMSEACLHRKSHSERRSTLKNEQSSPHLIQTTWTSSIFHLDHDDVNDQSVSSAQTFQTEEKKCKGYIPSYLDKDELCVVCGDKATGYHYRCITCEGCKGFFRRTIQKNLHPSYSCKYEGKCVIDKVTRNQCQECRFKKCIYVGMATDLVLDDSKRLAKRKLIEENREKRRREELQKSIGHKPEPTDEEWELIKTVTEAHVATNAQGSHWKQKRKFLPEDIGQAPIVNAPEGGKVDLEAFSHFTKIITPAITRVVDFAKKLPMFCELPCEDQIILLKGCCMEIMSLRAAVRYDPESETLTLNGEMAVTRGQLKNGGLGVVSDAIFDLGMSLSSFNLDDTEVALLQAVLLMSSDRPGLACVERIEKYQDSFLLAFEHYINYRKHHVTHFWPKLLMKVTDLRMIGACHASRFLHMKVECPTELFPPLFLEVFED

Vitamin D3 receptor = molecular target: T3, Vitamin D3 receptor (Homo sapiens, UniProt P11473); assay: Antagonist activity at VDR-LBD (unknown origin) assessed as inhibition of LG190178-induced recruitment of alexa fluor 647-labeled SRC2-3 after 30 mins by fluorescence polarization assay
T3 sequence (P11473 whole entry): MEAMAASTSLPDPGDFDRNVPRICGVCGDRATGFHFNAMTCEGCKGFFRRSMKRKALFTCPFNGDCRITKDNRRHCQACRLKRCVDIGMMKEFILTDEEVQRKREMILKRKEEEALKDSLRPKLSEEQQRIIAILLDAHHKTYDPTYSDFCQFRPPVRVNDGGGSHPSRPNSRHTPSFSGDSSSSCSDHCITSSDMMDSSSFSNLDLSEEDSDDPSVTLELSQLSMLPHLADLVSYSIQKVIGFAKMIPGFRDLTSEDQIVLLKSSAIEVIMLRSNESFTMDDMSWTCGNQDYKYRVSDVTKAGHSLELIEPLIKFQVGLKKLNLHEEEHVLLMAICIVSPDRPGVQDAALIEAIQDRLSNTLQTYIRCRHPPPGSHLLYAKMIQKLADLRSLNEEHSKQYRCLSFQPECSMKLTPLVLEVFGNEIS

[3] = molecular target: T4, Peroxisome proliferator-activated receptor delta (Homo sapiens, UniProt Q03181); assay: Antagonist activity at CMV-fused PPARdelta-LBD-GAL4-DBD (unknown origin) expressed in HEK293T cells assessed as inhibition of GW0742-induced receptor transactivation after 16 hrs by bright-Glo luciferase reporter gene assay; type: cell-based
T4 sequence (Q03181 whole entry): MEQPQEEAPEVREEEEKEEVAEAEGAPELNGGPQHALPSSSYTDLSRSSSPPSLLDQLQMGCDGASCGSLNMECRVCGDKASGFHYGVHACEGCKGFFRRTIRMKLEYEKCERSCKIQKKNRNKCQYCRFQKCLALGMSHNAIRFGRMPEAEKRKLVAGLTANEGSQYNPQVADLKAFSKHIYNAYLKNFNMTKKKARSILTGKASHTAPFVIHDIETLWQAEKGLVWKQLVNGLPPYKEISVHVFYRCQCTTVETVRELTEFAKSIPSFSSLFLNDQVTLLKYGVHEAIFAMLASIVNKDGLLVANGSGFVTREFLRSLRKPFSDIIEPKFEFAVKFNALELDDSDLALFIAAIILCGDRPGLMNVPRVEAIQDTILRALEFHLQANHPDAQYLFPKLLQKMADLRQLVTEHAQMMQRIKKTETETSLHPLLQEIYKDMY

Estrogen receptor beta = Estrogen receptor beta (Homo sapiens, UniProt Q92731); assay: Antagonist activity at CMV-fused ERbeta-LBD-GAL4-DBD (unknown origin) expressed in HEK293T cells assessed as inhibition of estradiol-induced receptor transactivation after 16 hrs by bright-Glo luciferase reporter gene assay; type: cell-based
Estrogen receptor beta, sequence (Q92731 whole entry, the tested form may be a part): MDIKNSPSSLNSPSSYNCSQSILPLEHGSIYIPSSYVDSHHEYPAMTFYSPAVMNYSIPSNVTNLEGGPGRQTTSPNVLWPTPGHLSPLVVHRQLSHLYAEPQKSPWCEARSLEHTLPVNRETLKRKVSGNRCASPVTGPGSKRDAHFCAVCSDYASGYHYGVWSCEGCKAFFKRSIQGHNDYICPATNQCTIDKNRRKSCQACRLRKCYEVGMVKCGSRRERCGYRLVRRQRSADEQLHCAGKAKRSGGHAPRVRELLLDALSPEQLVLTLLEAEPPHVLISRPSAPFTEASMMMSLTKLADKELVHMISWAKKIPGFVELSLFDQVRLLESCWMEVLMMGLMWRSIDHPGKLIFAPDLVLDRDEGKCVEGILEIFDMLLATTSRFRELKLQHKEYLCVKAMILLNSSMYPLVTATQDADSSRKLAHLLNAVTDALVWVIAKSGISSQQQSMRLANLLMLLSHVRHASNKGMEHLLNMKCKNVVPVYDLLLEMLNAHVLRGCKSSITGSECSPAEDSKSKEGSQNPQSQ

Estrogen receptor = molecular target: T5, Estrogen receptor (Homo sapiens, UniProt P03372); assay: Antagonist activity at CMV-fused ERalpha-LBD-GAL4-DBD (unknown origin) expressed in HEK293T cells assessed as inhibition of estradiol-induced receptor transactivation after 16 hrs by bright-Glo luciferase reporter gene assay; type: cell-based
T5 sequence (P03372 whole entry): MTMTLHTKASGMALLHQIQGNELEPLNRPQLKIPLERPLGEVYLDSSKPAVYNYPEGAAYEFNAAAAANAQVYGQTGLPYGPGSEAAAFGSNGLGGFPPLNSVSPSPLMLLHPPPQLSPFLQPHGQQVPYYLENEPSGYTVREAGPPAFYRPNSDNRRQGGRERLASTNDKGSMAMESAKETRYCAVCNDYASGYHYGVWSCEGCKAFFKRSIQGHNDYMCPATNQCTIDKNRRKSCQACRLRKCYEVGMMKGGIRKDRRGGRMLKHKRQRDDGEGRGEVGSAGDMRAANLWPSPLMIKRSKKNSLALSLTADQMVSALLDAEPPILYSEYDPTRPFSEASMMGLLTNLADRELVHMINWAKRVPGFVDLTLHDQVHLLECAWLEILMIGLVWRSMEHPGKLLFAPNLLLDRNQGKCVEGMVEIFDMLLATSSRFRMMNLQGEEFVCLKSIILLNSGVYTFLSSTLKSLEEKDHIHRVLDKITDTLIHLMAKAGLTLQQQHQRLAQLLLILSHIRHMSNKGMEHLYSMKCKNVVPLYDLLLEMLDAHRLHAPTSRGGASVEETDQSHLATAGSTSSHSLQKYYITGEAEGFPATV

Compound	IC50 [1] [µM]	IC50 [2] [µM]	IC50 (Vitamin D3 receptor)	IC50 [3] [µM]	IC50 (Estrogen receptor beta) [µM]	IC50 (Estrogen receptor) [µM]
COC(=O)Cc1ccc(OCc2oc(-c3cccc(OC)c3)nc2C)cc1	6.7	0.97	Not Active	11.3	7.4	1.7
COC(=O)Cc1ccc(OCc2oc(-c3ccccc3OC)nc2C)cc1	6.3	7.6	Not Active	6.6	10	4.1
COC(=O)c1ccc(OCc2oc(-c3cccc(OC)c3)nc2C)cc1	7.6	8.8	Not Active	10.9	5.9	4.7
COC(=O)c1cccc(OCc2oc(-c3ccccc3OC)nc2C)c1	7.6	9.8	Not Active	10.9	23.6	5.2
